Data published in patent US8859026B2, “Method for reducing methoxypyrazines in grapes and grape products” (Brock University, priority 2009, dated 2014).
Read-outs that look alike come from different tables or passages of the source.

Legend:
[1] = system: pOBP, adult porcine OBP isoform; conditions: isothermal calorimetry, Burova et al., 1999, cited from earlier work
piglet OBP = target: T1, piglet OBP (Sus scrofa, UniProt P81245); assay: Competitive fluorescent binding assay: displacement of 1-AMA from piglet OBP by odorants IPMP and IBMP; set-up: species or system porcine; conditions: for Kd: calculated from IC50, read-out: Kd for piglet OBP
T1 construct: made in house; host or cells: Pichia pastoris GS115 (pPIC9, alpha-mating factor secretion signal)
T1 sequence (P81245 with tags, fused parts or gaps): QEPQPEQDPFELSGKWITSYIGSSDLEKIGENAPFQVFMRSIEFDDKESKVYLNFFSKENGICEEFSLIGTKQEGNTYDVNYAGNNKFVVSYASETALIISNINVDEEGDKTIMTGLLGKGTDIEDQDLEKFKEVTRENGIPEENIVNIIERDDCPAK
Procedure: (§1) The interaction of odorants with AMA complex was examined by monitoring the decrease in fluorescence intensity of protein/1-AMA complex upon the addition of competitor compounds.
(§2) In competitive binding assays, 1-AMA (10 μM) was equilibrated with protein (2 μM) at pH 7.2 50 mM sodium phosphate buffer and pH 3.0 50 mM citrate phosphate buffer, and titrated with increasing concentrations of odorants (0-100 μM) solubilized in 10% v/v methanol.
(§3) The affinity of OBPs for odorants was estimated by plotting the decrease of intensity of 1-AMA fluorescence at the emission maximum, (22). Odorant concentrations causing fluorescence decay to half-maximal intensity (IC50 values) were determined from the plot of (I−Imin)/(I0−Imin) against the competitor concentration; I0 is the maximum of fluorescence intensity of the protein/1-AMA complex; I is the fluorescence intensity after addition of an aliquot of competitor, and Imin the fluorescence intensity at saturating concentration of the competitor.

[2] = target: T2, mouse MUPII (mMUPII), Genbank AJ309921, Uniprot P11589, SEQ ID NO: 5, recombinant (Mus musculus, UniProt P11589); assay: Competitive displacement of 1-AMA, mouse MUPII; format: binding; conditions: for IC50: displacement of 1-AMA, 2 uM protein, 10 uM 1-AMA
T2 construct: no tag mentioned
T2 sequence (P11589 19-180): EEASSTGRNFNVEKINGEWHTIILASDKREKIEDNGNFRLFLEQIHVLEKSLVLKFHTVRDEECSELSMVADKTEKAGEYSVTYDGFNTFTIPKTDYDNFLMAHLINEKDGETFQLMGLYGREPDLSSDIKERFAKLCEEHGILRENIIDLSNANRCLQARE
Procedure: (§4) Competitive binding assays were done with 2 uM protein pre equilibrated with five fold 1-AMA concentration (10 uM). Fluorescence decay of the protein/1-AMA complex is expressed as a ratio of initial and final fluorescence against the total competitor concentration: (I−Imin)/(Io−Imin) where Io=fluorescence intensity of the protein/1-AMA complex, Imin=fluorescence intensity at saturation, and I=fluorescence intensity at a given competitor concentration.
(§5) Fluorescence ligand binding experiments were performed on a Photon Technology International (London, Canada) Quanta Master Model QM2001 fluorometer at room temperature (19-20° C.), using 1 cm light path quartz cuvettes (Hellma). Slit width of 2 nm was used for excitation and emission for assaying a proteins except ratOBP1F, for which excitation and emission slit width of 6 nm was used.
as §1, §2, §3

pOBP (adult porcine OBP) = conditions: cited from earlier work
[3] = target: mMUPII (mouse major urinary protein isoform II); conditions: cited from earlier work
[4] = target: T3, rat OBP1F (rat OBP variant 1F), recombinant (Rattus norvegicus, UniProt P08937); assay: Competitive displacement of 1-AMA, rat OBP-1F; format: binding; conditions: pH 7.2
T3 construct: made in house; host or cells: Pichia pastoris (vector pPIC9; recombinant strain provided by J.-C; Pernollet, INRA)
T3 sequence (P08937 16-172): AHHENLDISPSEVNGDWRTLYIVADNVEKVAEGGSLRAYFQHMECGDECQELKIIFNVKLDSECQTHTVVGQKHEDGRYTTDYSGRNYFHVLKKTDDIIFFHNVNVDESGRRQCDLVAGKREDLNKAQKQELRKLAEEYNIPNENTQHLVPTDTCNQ
Procedure: as §4, §5, §1, §2, §3

rOBP-1F = conditions: cited from earlier work
rat OBP = conditions: Nespoulous et al 2004; read-out: apparent Kd; cited from earlier work
[5] = target: T4, piglet OBP (pIOBP), Genbank AF436848, Uniprot Q8WMH1-1, SEQ ID NO: 3 (codon optimized) / SEQ ID NO: 4 (non-optimized), recombinant (Sus scrofa, UniProt P81245); assay: Competitive displacement of 1-AMA, piglet OBP; format: binding, pig (piglet/prepubertal)
T4 construct: S. cerevisiae alpha-mating factor secretion signal (pPIC9) (N); made in house; host or cells: Pichia pastoris GS115 (vector pPIC9)
T4 sequence (P81245 with tags, fused parts or gaps): T1 sequence (P81245 with tags, fused parts or gaps)
Procedure: as §4, §5, §1, §2, §3

[6] = target: T3, rat OBP1F (rat OBP variant 1F), recombinant; assay: 1-AMA fluorescence binding assay, rat OBP-1F
Procedure: (§6) The excitation wavelength of 290 nm was used and fluorescence emission intensities were monitored at 504 nm, 483 nm and 486 nm for rat OBP1F, piglet OBP and mouse MUPII respectively.
as §5
(§7) Binding curves with 1-AMA were obtained by titrating protein (2 μM) in 50 mM sodium phosphate, pH 7.2 with ligand (0-50 uM, prepared gravimetrically as a 1 mM stock solution in 10% v/v methanol). To examine dependence of binding on pH, fluorescence spectra was measured in 50 mM citrate phosphate solutions at pH 3.0, 4.0 and 5.0. Fluorescence of 1-AMA was excited at 290 nm and emission was scanned from 450 to 550 nm.
(§8) Dissociation constants were calculated from a plot of fluorescence intensity against total ligand concentration fitted with non linear regression using Prism 3.02 (GraphPad Software Inc., La Jolla, Calif.).

rat OBP-1F = conditions: 1-AMA; Briand et al. 2000 (21); cited from earlier work
[7] = target: adult porcine OBP isoform; conditions: 1-AMA; Paolini et al. 1999 (26), Ramoni et al. 2007 (27); cited from earlier work
[8] = target: T4, piglet OBP (pIOBP), Genbank AF436848, Uniprot Q8WMH1-1, SEQ ID NO: 3 (codon optimized) / SEQ ID NO: 4 (non-optimized), recombinant; assay: 1-AMA fluorescence binding assay, piglet OBP; set-up: species or system pig (piglet/prepubertal)
Description: as §6
(§9) cDNA sequence encoding mature piglet OBP (Genbank AF436848) and the mouse MUPII (Genbank AJ309921) were designed for heterologous expression in the methylotrophic yeast P. pastoris as follows: at the 5′ end of coding sequences, native signal peptide sequences were removed and replaced with XhoI (CTC GAG ([SEQ ID NO: 1]) and prepro sequence of the S. cerevisiae α-mating factor (AAA AGA [SEQ ID NO:2]). A stop codon and an EcoRI restriction site were added at the 3′ terminus. The sequences were then optimized for G+C content and preferred codon usage in P. pastoris. Modified coding sequences were synthesized and cloned in frame with the α-mating factor secretion signal into the pPIC9 expression vector between the XhoI and EcoRI sites (GenScript Corp., Piscataway, N.J.). Further information about the protein sequences is provided below:
Uniprot ID Q8WMH1-1, Genbank AF436848. *chain comprises 158 residues *differs from adult isoform/variant by an additional lysine residue at the C terminal end. Tissue source for cloning and binding: vomeronasal organ, but the isomer is also found in both vomeronasal and nasal mucosa.
as §5, §7, §8

[9] = target: T2, mouse MUPII (mMUPII), Genbank AJ309921, Uniprot P11589, SEQ ID NO: 5, recombinant; assay: 1-AMA fluorescence binding assay, mouse MUPII
Description: as §6, §9
3. mouse MUPII (MUPIIa Genbank AJ309921, MUP BL1 gene, Uniprot ID P11589)
as §5, §7, §8

Structure (SMILES): COc1nccnc1CC(C)C [IBMP, 2-isobutyl-3-methoxypyrazine]
- molar binding stoichiometry n ([1]; pH 3.5): 0.417
- molar binding stoichiometry n ([1]; pH 4.1): 1.080
- affinity to IBMP ([1]; pH 6.6, pH 4.1 and pH 3.5): remained relatively unchanged
- molar binding stoichiometry n ([1]; pH 6.6): 1.220
- IC50 (piglet OBP; pH 3.0): 3650 nM
- affinity for pIOBP, more strongly than IPMP (piglet OBP; pH 3.0): 1.6 fold
- Kd (piglet OBP; pH 3.0): 1470 nM
- IC50 (piglet OBP; pH 7.2): 6860 nM
- affinity for pIOBP, more strongly than IPMP (piglet OBP; pH 7.2): about 5 fold
- Kd (piglet OBP; pH 7.2): 940 nM
- Kd ([2]; calculated from IC50, pH 3.0, read-out: Kd): 1080 nM
- Kd ([2]; calculated from IC50, pH 7.2, read-out: Kd): 480 nM
- IC50 ([2]; pH 3.0): 3410 nM
- IC50 ([2]; pH 7.2): 8070 nM
- displacement of fluorescence ([2]; pH 3.0): complete displacement
- Kd ([2]; pH 3.0, read-out: apparent Kd): 1000 nM
- displacement of 1-AMA fluorescence ([2]; pH 7.2): complete displacement
- Kd ([2]; pH 7.2, read-out: apparent Kd): 500 nM
- Kd (pOBP (adult porcine OBP)): 500 to 900 nM
- Kd [3]: 940 nM
- Kd ([4]; calculated from IC50): 43 nM
- IC50 ([4]; displacement of 1-AMA, 2 uM protein, 10 uM 1-AMA): 250 nM
- binding to rOBP-1F more strongly than to mMUPII [4]: ~20 fold
- binding to rOBP-1F more strongly than to pIOBP [4]: about 10 fold
- displacement of 1-AMA fluorescence [4]: complete displacement
- Kd (rOBP-1F): 69 nM
- Kd (rat OBP): 69 nM
- Kd [5]: 1000 nM
- displacement of fluorescence ([5]; pH 3.0): complete displacement
- displacement of 1-AMA fluorescence ([5]; pH 7.2): complete displacement

Structure (SMILES): Nc1cccc2cc3ccccc3cc12 [1-AMA, 1-aminoanthracene]
- saturable binding ([6]; pH 3.0): saturable binding curve was not detected
- Kd ([6]; pH 5.0): 1700 nM
- Kd ([6]; pH 7.2): 1640 nM
- Kd (rat OBP-1F): 600 nM
- Kd [7]: 1200 to 1300 nM
- Kd ([8]; pH 3.0): 4300 nM
- decrease in binding affinity compared with pH 7.2 ([8]; pH 3.0): 3.4 fold
- maximal binding capacity compared with pH 7.2 ([8]; pH 3.0): approximately halved
- Kd ([8]; pH 4.0): 2660 nM
- decrease in binding affinity compared with pH 7.2 ([8]; pH 4.0): 2 fold
- Kd ([8]; pH 5.0): 1450 nM
- Kd ([8]; pH 7.2): 1260 nM
- Kd ([9]; pH 3.0): 3480 nM
- Kd ([9]; pH 4.0): 1970 nM
- Kd ([9]; pH 5.0): 1850 nM
- Kd ([9]; pH 7.2): 490 nM
- binding capacity compared with pH 7.2 ([9]; pH 3.0): less than halved
- decrease in binding affinity compared with pH 7.2 ([9]; pH 3.0): 7 fold
- decrease in binding affinity compared with pH 7.2 ([9]; pH 4.0): about 4 fold
- decrease in binding affinity compared with pH 7.2 ([9]; pH 5.0): about 4 fold
